# Test system: androgen receptor (AR) in LNCaP and/or VCaP cells
# Assay: Androgen Receptor ELISA assay (AR degradation)
# Assay type: cell-based
# Settings: LNCaP and/or VCaP cells; 5 hours incubation; media with R1881; read-out: DC50 Code* (degradation of AR ELISA)
# Summary of the method: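 VCaP cells grown ≥3 days, then treated 5 h with compound in media containing 1 nM R1881 (10× stock). Cells lysed and AR quantified by sandwich ELISA (mouse AR detection Ab, HRP anti-mouse, TMB). DC50 and Dmax derived from AR degradation.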
row,DC50,Compound
1,< 1 nM,"CC(C)N(CC1CCN(c2cnc(C(=O)N[C@H]3CC[C@H](Oc4ccc(C#N)c(Cl)c4)CC3)cn2)CC1)[C@H]1C[C@H](Oc2ccc3c(c2)C(=O)N(C2CCC(=O)NC2=O)C3)C1 (some centres unmarked) [Compound 41, N-((1r,4r)-4-(3-chloro-4-cyanophenoxy)cyclohexyl)-5-(4-((((1r,3r)-3-((2-(2,6-dioxopiperidin-3-yl)-3-oxoisoindolin-5-yl)oxy)cyclobutyl) (isopropyl)amino)methyl)piperidin-1-yl)pyrazine-2-carboxamide]"
2,< 1 nM,"CC(C)N(CC1CCN(c2ccc(C(=O)N[C@H]3CC[C@H](Oc4ccc(C#N)c(Cl)c4)CC3)nn2)CC1)[C@H]1CC[C@H](Oc2ccc3c(c2)C(=O)N(C2CCC(=O)NC2=O)C3=O)CC1 (some centres unmarked) [Compound 47, N-((1r,4r)-4-(3-chloro-4-cyanophenoxy)cyclohexyl)-6-(4-((((1r,4r)-4-((2-(2,6-dioxopiperidin-3-yl)-1,3-dioxoisoindolin-5-yl)oxy)cyclohexyl) (isopropyl)amino)methyl)piperidin-1-yl)pyridazine-3-carboxamide]"
3,1 to 10 nM,"CCOc1cc(O[C@H]2CC[C@H](NC(=O)c3cnc(N4CC(CN(C(C)C)[C@H]5C[C@H](Oc6ccc7c(c6)C(=O)N(C6CCC(=O)NC6=O)C7=O)C5)C4)nc3)CC2)ccc1C#N (some centres unmarked) [Compound 70, N-((1r,4r)-4-(4-cyano-3-ethoxyphenoxy)cyclohexyl)-2-(3-((((1r,3r)-3-((2-(2,6-dioxopiperidin-3-yl)-1,3-dioxoisoindolin-5-yl)oxy)cyclobutyl) (isopropyl)amino)methyl)azetidin-1-yl)pyrimidine-5-carboxamide]"
4,< 1 nM,"CC(C)N(CC1CCN(c2cnc(C(=O)N[C@H]3CC[C@H](Oc4ccc(C#N)c(Cl)c4)CC3)cn2)CC1)[C@H]1C[C@H](Oc2ccc3c(c2F)C(=O)N(C2CCC(=O)NC2=O)C3=O)C1 (some centres unmarked) [Compound 52, N-((1r,4r)-4-(3-chloro-4-cyanophenoxy)cyclohexyl)-5-(4-((((1r,3r)-3-((2-(2,6-dioxopiperidin-3-yl)-4-fluoro-1,3-dioxoisoindolin-5-yl)oxy)cyclobutyl) (isopropyl)amino)methyl)piperidin-1-yl)pyrazine-2-carboxamide]"
5,> 100 nM,"COc1cc(O[C@@H]2CC[C@@H](NC(=O)c3cnc(N4CCC(CN(C(C)C)[C@H]5C[C@H](Oc6ccc7c(c6)C(=O)N(C6CCC(=O)NC6=O)C7=O)C5)CC4)cn3)C2)ccc1C#N (stereo partly drawn) [Compound 10, N-((1R,3R)-3-(4-cyano-3-methoxyphenoxy)cyclopentyl)-5-(4-((((1r,3R)-3-((2-(2,6-dioxopiperidin-3-yl)-1,3-dioxoisoindolin-5-yl)oxy)cyclobutyl) (isopropyl)amino)methyl)piperidin-1-yl)pyrazine-2-carboxamide]"

# Same assay, conditions: degradation of AR ELISA in LNCaP and/or VCaP cells; Table 2C; read-out: DC50 Code*
row,DC50,Compound
1,< 1 nM,"CC1(C)[C@H](NC(=O)c2cnc(N3CCC(CN(CCN4CCOCC4)[C@H]4C[C@H](Oc5ccc6c(c5)C(=O)N(C5CCC(=O)NC5=O)C6=O)C4)CC3)cn2)C(C)(C)[C@H]1Oc1ccc(C#N)c(C#N)c1 (some centres unmarked) [compound 233, N-((1r,3r)-3-(3,4-dicyanophenoxy)-2,2,4,4-tetramethylcyclobutyl)-5-(4-((((1r,3r)-3-((2-(2,6-dioxopiperidin-3-yl)-1,3-dioxoisoindolin-5-yl)oxy)cyclobutyl)(2-morpholinoethyl)amino)methyl)piperidin-1-yl)pyrazine-2-carboxamide]"
2,< 1 nM,"CCN(C1CCN(c2ccc(C(=O)N[C@H]3C(C)(C)[C@H](Oc4cc(C)c(C#N)c(C)c4)C3(C)C)cc2)CC1)[C@H]1C[C@H](Oc2cc(OC)c3c(c2)C(=O)N(C2CCC(=O)NC2=O)C3=O)C1 (mixture of isomers) [compound 165, rac-N-((1r,3r)-3-(4-cyano-3,5-dimethylphenoxy)-2,2,4,4-tetramethylcyclobutyl)-4-(4-(((1r,3r)-3-((2-(2,6-dioxopiperidin-3-yl)-7-methoxy-1,3-dioxoisoindolin-5-yl)oxy)cyclobutyl) (ethyl)amino)piperidin-1-yl)benzamide]"
3,10 to 100 nM,"COc1cc(O[C@H]2C[C@H](N(CC(F)F)CC3CCN(c4cnc(C(=O)N[C@H]5C(C)(C)[C@H](Oc6ccc(C#N)c(Cl)c6)C5(C)C)cn4)CC3)C2)cc2c1C(=O)N(C1CCC(=O)NC1=O)C2=O (some centres unmarked) [compound 137, N-((1r,3r)-3-(3-chloro-4-cyanophenoxy)-2,2,4,4-tetramethylcyclobutyl)-5-(4-(((2,2-difluoroethyl)((1r,3r)-3-((2-(2,6-dioxopiperidin-3-yl)-7-methoxy-1,3-dioxoisoindolin-5-yl)oxy)cyclobutyl)amino)methyl)piperidin-1-yl)pyrazine-2-carboxamide]"
4,> 100 nM,"CC(C)N(CC1CCN(c2cnc(C(=O)N[C@H]3C(C)(C)[C@H](Oc4ccc(C#N)c(Cl)c4)C3(C)C)cn2)CC1)[C@H]1C[C@H](Oc2ccc3c(c2)C(=O)N(C2CCC(=O)NC2=O)C32CC2)C1 (some centres unmarked) [compound 141, N-((1r,3r)-3-(3-chloro-4-cyanophenoxy)-2,2,4,4-tetramethylcyclobutyl)-5-(4-((((1r,3r)-3-((2′-(2,6-dioxopiperidin-3-yl)-3′-oxospiro[cyclopropane-1,1′-isoindolin]-5′-yl)oxy)cyclobutyl) (isopropyl)amino)methyl)piperidin-1-yl)pyrazine-2-carboxamide]"
5,1 to 10 nM,"CCOc1cc(O[C@H]2C(C)(C)[C@H](NC(=O)c3cnc(N4CC(CN(C(C)C)[C@H]5C[C@H](Oc6ccc7c(c6)C(=O)N(C6CCC(=O)NC6=O)C7=O)C5)C4)cn3)C2(C)C)ccc1C#N (some centres unmarked) [compound 134, N-((1r,3r)-3-(4-cyano-3-ethoxyphenoxy)-2,2,4,4-tetramethylcyclobutyl)-5-(3-((((1r,3r)-3-((2-(2,6-dioxopiperidin-3-yl)-1,3-dioxoisoindolin-5-yl)oxy)cyclobutyl) (isopropyl)amino)methyl)azetidin-1-yl)pyrazine-2-carboxamide]"
6,> 100 nM,"CC1(C)[C@H](NC(=O)c2ccc(N3CCC(CN4CCN(c5ccc6c(c5)C(=O)N(C5CCC(=O)N(O)C5=O)C6=O)CC4)CC3)cc2)C(C)(C)[C@H]1Oc1ccc(C#N)c(Cl)c1 (some centres unmarked) [compound 142, N-((1r,3r)-3-(3-chloro-4-cyanophenoxy)-2,2,4,4-tetramethylcyclobutyl)-4-(4-((4-(2-(1-hydroxy-2,6-dioxopiperidin-3-yl)-1,3-dioxoisoindolin-5-yl)piperazin-1-yl)methyl)piperidin-1-yl)benzamide]"
7,< 1 nM,"CC(C)N(CC1CCN(c2ncc(C(=O)N[C@H]3C(C)(C)[C@H](Oc4ccc(C#N)c(C#N)c4)C3(C)C)cn2)CC1)[C@H]1C[C@H](Oc2ccc3c(c2)C(=O)N(C2CCC(=O)NC2=O)C3=O)C1 (some centres unmarked) [compound 108, N-((1r,3r)-3-(3,4-dicyanophenoxy)-2,2,4,4-tetramethylcyclobutyl)-2-(4-((((1r,3r)-3-((2-(2,6-dioxopiperidin-3-yl)-1,3-dioxoisoindolin-5-yl)oxy)cyclobutyl) (isopropyl)amino)methyl)piperidin-1-yl)pyrimidine-5-carboxamide]"
8,< 1 nM,"COc1cc(O[C@H]2C[C@H](N(C)C3CCN(c4ccc(C(=O)N[C@H]5C(C)(C)[C@H](Oc6cc(C)c(C#N)c(C)c6)C5(C)C)cc4)CC3)C2)cc2c1C(=O)N(C1CCC(=O)NC1=O)C2=O (mixture of isomers) [compound 189, rac-N-((1r,3r)-3-(4-cyano-3,5-dimethylphenoxy)-2,2,4,4-tetramethylcyclobutyl)-4-(4-(((1r,3r)-3-((2-(2,6-dioxopiperidin-3-yl)-7-methoxy-1,3-dioxoisoindolin-5-yl)oxy)cyclobutyl) (methyl)amino)piperidin-1-yl)benzamide]"
9,< 1 nM,"COc1cc(OCCN2CCOC3(CCN(c4ccc(C(=O)N[C@H]5C(C)(C)[C@H](Oc6cc(C)c(C#N)c(C)c6)C5(C)C)cc4)CC3)C2)cc2c1C(=O)N(C1CCC(=O)NC1=O)C2=O (some centres unmarked) [compound 215, N-((1r,3r)-3-(4-cyano-3,5-dimethylphenoxy)-2,2,4,4-tetramethylcyclobutyl)-4-(4-(2-((2-(2,6-dioxopiperidin-3-yl)-7-methoxy-1,3-dioxoisoindolin-5-yl)oxy)ethyl)-1-oxa-4,9-diazaspiro[5.5]undecan-9-yl)benzamide]"
10,< 1 nM,"Cc1cc(O[C@H]2C(C)(C)[C@H](NC(=O)c3cnc(N4CC(CN5CCC(Oc6ccc7c(c6)C(=O)N(C6CCC(=O)NC6=O)C7=O)CC5)C4)cn3)C2(C)C)cc(C)c1C#N (some centres unmarked) [compound 117, N-((1r,3r)-3-(4-cyano-3,5-dimethylphenoxy)-2,2,4,4-tetramethylcyclobutyl)-5-(3-((4-((2-(2,6-dioxopiperidin-3-yl)-1,3-dioxoisoindolin-5-yl)oxy)piperidin-1-yl)methyl)azetidin-1-yl)pyrazine-2-carboxamide]"
11,< 1 nM,"Cc1cc(O[C@H]2C(C)(C)[C@H](NC(=O)c3cnc(N4CC(CN[C@H]5C[C@H](Oc6ccc7c(c6)C(=O)N(C6CCC(=O)NC6=O)C7=O)C5)C4)cn3)C2(C)C)cc(C)c1C#N (some centres unmarked) [compound 118, N-((1r,3r)-3-(4-cyano-3,5-dimethylphenoxy)-2,2,4,4-tetramethylcyclobutyl)-5-(3-((((1r,3r)-3-((2-(2,6-dioxopiperidin-3-yl)-1,3-dioxoisoindolin-5-yl)oxy)cyclobutyl)amino)methyl)azetidin-1-yl)pyrazine-2-carboxamide]"

# Same assay, conditions: degradation of AR ELISA in LNCaP and/or VCaP cells; read-out: DC50 Code*
row,DC50,Compound
1,1 to 10 nM,"COc1cc(O[C@H]2C[C@H](N(CC(F)F)CC3CCN(c4ccc(C(=O)N[C@H]5C(C)(C)[C@H](Oc6cc(C)c(C#N)c(C)c6)C5(C)C)cc4)CC3)C2)cc2c1C(=O)N(C1CCC(=O)NC1=O)C2=O (some centres unmarked) [compound 242, N-((1r,3r)-3-(4-cyano-3,5-dimethylphenoxy)-2,2,4,4-tetramethylcyclobutyl)-4-(4-(((2,2-difluoroethyl)((1r,3r)-3-((2-(2,6-dioxopiperidin-3-yl)-7-methoxy-1,3-dioxoisoindolin-5-yl)oxy)cyclobutyl)amino)methyl)piperidin-1-yl)benzamide]"
